# How the values were obtained:
# SNB-19 [1] = experiment: Growth inhibition of human SNB19 cells at 100 uM; type: functional; settings: read-out: GI
# SF-268 [2] = experiment: Growth inhibition of human SF268 cells; type: functional
# OVCAR-3 [3] = experiment: Growth inhibition of human OVCAR-3 cells at 100 uM; type: functional; settings: read-out: GI
# Mus musculus [4] = organism: Mus musculus; experiment: Toxicity in Swiss albino mouse assessed as reduction in tremors by Irwin test; type: organism-based; settings: in vivo
# Mus musculus [5] = organism: Mus musculus; experiment: Toxicity in Swiss albino mouse assessed as reduction in twitches by Irwin test; type: organism-based; settings: in vivo
# K562 [6] = experiment: Growth inhibition of human K562 cells; type: functional
# [7] = Toxicity in Swiss albino mouse assessed as death after 5 days assessed after 24 hrs post treatment by Irwin test; type: organism-based; settings: in vivo
# SK-MEL-5 [8] = experiment: Growth inhibition of human SK-MEL-5 cells; type: functional
# Mus musculus [9] = organism: Mus musculus; experiment: Toxicity in Swiss albino mouse assessed as reduction in spontaneous activity after 60 mins by Irwin test; type: organism-based; settings: in vivo, 1 h
# KM12 [10] = experiment: Growth inhibition of human KM12 cells at 100 uM; type: functional; settings: read-out: GI
# OVCAR-4 [11] = experiment: Growth inhibition of human OVCAR4 cells at 100 uM; type: functional; settings: read-out: GI
# HCC 2998 [12] = experiment: Growth inhibition of human HCC2998 cells at 100 uM; type: functional; settings: read-out: GI
# Mus musculus [13] = experiment: Toxicity in Swiss albino mouse assessed as loss of spontaneous movement at 10 mg/kg, ip after 1 hr by Lim test; type: organism-based; design: dose 10 mg/kg, route intraperitoneal; settings: in vivo
# Mus musculus [14] = organism: Mus musculus; experiment: Toxicity in Swiss albino mouse assessed as reduction in sensory-motor response by Irwin test; type: organism-based; settings: in vivo
# NCI-H23 [15] = experiment: Growth inhibition of human NCI-H23 cells at 100 uM; type: functional; settings: read-out: GI
# MOLT-4 [16] = experiment: Growth inhibition of human MOLT4 cells at 100 uM; type: functional; settings: read-out: GI
# Mus musculus [17] = experiment: Toxicity in Swiss albino mouse assessed as loss of muscle tone at 25 mg/kg, ip after 1 hr by Lim test; type: organism-based, Muscle tissue; design: dose 25 mg/kg, route intraperitoneal; settings: in vivo
# KM12 [18] = experiment: Growth inhibition of human KM12 cells; type: functional
# SNB-75 [19] = experiment: Growth inhibition of human SNB75 cells at 100 uM; type: functional; settings: read-out: GI
# Mus musculus [20] = organism: Mus musculus; experiment: Toxicity in Swiss albino mouse assessed as reduction in convulsions by Irwin test; type: organism-based; settings: in vivo
# K562 [21] = experiment: Growth inhibition of human K562 cells at 100 uM; type: functional; settings: read-out: GI
# Mus musculus [22] = experiment: Toxicity in Swiss albino mouse assessed as loss of spontaneous movement at 25 mg/kg, ip after 1 hr by Lim test; type: organism-based; design: dose 25 mg/kg, route intraperitoneal; settings: in vivo
# OVCAR-3 [23] = experiment: Growth inhibition of human OVCAR-3 cells; type: functional
# SK-MEL-2 [24] = experiment: Growth inhibition of human SK-MEL-2 cells; type: functional
# HCT-116 [25] = experiment: Growth inhibition of human HCT116 cells; type: functional
# SF-268 [26] = experiment: Growth inhibition of human SF268 cells at 100 uM; type: functional; settings: read-out: GI
# UO-31 [27] = experiment: Growth inhibition of human UO31 cells at 100 uM; type: functional; settings: read-out: GI
# SK-MEL-2 [28] = experiment: Growth inhibition of human SK-MEL-2 cells at 100 uM; type: functional; settings: read-out: GI
# UO-31 [29] = experiment: Growth inhibition of human UO31 cells; type: functional
# SK-MEL-5 [30] = experiment: Growth inhibition of human SK-MEL-5 cells at 100 uM; type: functional; settings: read-out: GI
# Mus musculus [31] = experiment: Toxicity in Swiss albino mouse assessed as loss of spontaneous movement at 50 mg/kg, ip after 1 hr by Lim test; type: organism-based; design: dose 50 mg/kg, route intraperitoneal; settings: in vivo
# Mus musculus [32] = organism: Mus musculus; experiment: Toxicity in Swiss albino mouse assessed as loss of sight after 30 mins by Irwin test; type: organism-based; settings: in vivo, 0.5 h
# DMS-273 [33] = experiment: Growth inhibition of human DMS273 cells; type: functional
# Mus musculus [34] = organism: Mus musculus; experiment: Toxicity in Swiss albino mouse assessed as reduction in equilibrium after 180 mins by Irwin test; type: organism-based; settings: in vivo, 3 h
# M19-MEL [35] = experiment: Growth inhibition of human M19-MEL cells; type: functional
# MOLT-4 [36] = experiment: Growth inhibition of human MOLT4 cells; type: functional
# UACC-257 [37] = experiment: Growth inhibition of human UACC257 cells; type: functional
# NCI-H226 [38] = experiment: Growth inhibition of human NCI-H226 cells; type: functional
# RPMI-8226 [39] = experiment: Growth inhibition of human RPMI8226 cells at 100 uM; type: functional; settings: read-out: GI
# NCI-H522 [40] = experiment: Growth inhibition of human NCI-H522 cells; type: functional
# Mus musculus [41] = organism: Mus musculus; experiment: Toxicity in Swiss albino mouse assessed as loss of hypotonic gait after 30 mins by Irwin test; type: organism-based; settings: in vivo, 0.5 h
# OVCAR-4 [42] = experiment: Growth inhibition of human OVCAR4 cells; type: functional
# HCC 2998 [43] = experiment: Growth inhibition of human HCC2998 cells; type: functional
# NCI-H226 [44] = experiment: Growth inhibition of human NCI-H226 cells at 100 uM; type: functional; settings: read-out: GI
# HCT-116 [45] = experiment: Growth inhibition of human HCT116 cells at 100 uM; type: functional; settings: read-out: GI
# CCRF-CEM [46] = experiment: Growth inhibition of human CCRF-CEM cells at 100 uM; type: functional; settings: read-out: GI
# Mus musculus [47] = organism: Mus musculus; experiment: Toxicity in Swiss albino mouse assessed as reduction in muscular tone after 180 mins by Irwin test; type: organism-based; settings: in vivo, 3 h
# Mus musculus [48] = experiment: Toxicity in Swiss albino mouse assessed as loss of righting reflex at 10 mg/kg, ip after 1 hr by Lim test; type: organism-based; design: dose 10 mg/kg, route intraperitoneal; settings: in vivo
# Mus musculus [49] = organism: Mus musculus; experiment: Toxicity in Swiss albino mouse assessed as loss of righting reflex after 30 mins by Irwin test; type: organism-based; settings: in vivo, 0.5 h
# NCI-H522 [50] = experiment: Growth inhibition of human NCI-H522 cells at 100 uM; type: functional; settings: read-out: GI
# Mus musculus [51] = experiment: Toxicity in Swiss albino mouse assessed as loss of muscle tone at 10 mg/kg, ip after 1 hr by Lim test; type: organism-based, Muscle tissue; design: dose 10 mg/kg, route intraperitoneal; settings: in vivo
# UACC-257 [52] = experiment: Growth inhibition of human UACC257 cells at 100 uM; type: functional; settings: read-out: GI
# Mus musculus [53] = experiment: Toxicity in Swiss albino mouse assessed as loss of righting reflex at 50 mg/kg, ip after 1 hr by Lim test; type: organism-based; design: dose 50 mg/kg, route intraperitoneal; settings: in vivo
# SNB-19 [54] = experiment: Growth inhibition of human SNB19 cells; type: functional
# CCRF-CEM [55] = experiment: Growth inhibition of human CCRF-CEM cells; type: functional
# M19-MEL [56] = experiment: Growth inhibition of human M19-MEL cells at 100 uM; type: functional; settings: read-out: GI
# Mus musculus [57] = organism: Mus musculus; experiment: Toxicity in Swiss albino mouse assessed as reduction in motor affective response by Irwin test; type: organism-based; settings: in vivo
# NCI-H23 [58] = experiment: Growth inhibition of human NCI-H23 cells
# DMS-273 [59] = experiment: Growth inhibition of human DMS273 cells at 100 uM; type: functional; settings: read-out: GI
# RPMI-8226 [60] = experiment: Growth inhibition of human RPMI8226 cells; type: functional
# Mus musculus [61] = experiment: Toxicity in Swiss albino mouse assessed as loss of muscle tone at 50 mg/kg, ip after 1 hr by Lim test; type: organism-based, Muscle tissue; design: dose 50 mg/kg, route intraperitoneal; settings: in vivo
# SNB-75 [62] = experiment: Growth inhibition of human SNB75 cells; type: functional
# Mus musculus [63] = organism: Mus musculus; experiment: Toxicity in Swiss albino mouse assessed as involvement of autonomic nervous system; type: organism-based; settings: in vivo
# Mus musculus [64] = experiment: Toxicity in Swiss albino mouse assessed as loss of righting reflex at 25 mg/kg, ip after 1 hr by Lim test; type: organism-based; design: dose 25 mg/kg, route intraperitoneal; settings: in vivo
compound,measurement,setting,value
O=C1OCc2c1cc1ccc(O)c(O[C@@H]3O[C@H](CO)[C@@H](O)[C@H](O)[C@H]3O)c1c2-c1ccc2c(c1)OCO2 [ELENOSIDE],inhibition of growth at 100 µM,SNB-19 [1],81%
same,GI50,SF-268 [2],57.1 µM
same,inhibition of growth at 100 µM,OVCAR-3 [3],60%
same,Activity,Mus musculus [4],Non-toxic
same,Activity,Mus musculus [5],Non-toxic
same,GI50,K562 [6],39.5 µM
same,LD50 at 5 days,[7],3.05 mg/kg
same,GI50,SK-MEL-5 [8],26.2 µM
same,Activity,Mus musculus [9],Toxic
same,inhibition of growth at 100 µM,KM12 [10],77%
same,inhibition of growth at 100 µM,OVCAR-4 [11],66%
same,inhibition of growth at 100 µM,HCC 2998 [12],87%
same,Activity,Mus musculus [13],90%
same,Activity,Mus musculus [14],Dose-dependent effect
same,inhibition of growth at 100 µM,NCI-H23 [15],72%
same,inhibition of growth at 100 µM,MOLT-4 [16],88%
same,Activity,Mus musculus [17],50%
same,GI50,KM12 [18],23.4 µM
same,inhibition of growth at 100 µM,SNB-75 [19],66%
same,Activity,Mus musculus [20],Non-toxic
same,inhibition of growth at 100 µM,K562 [21],79%
same,Activity,Mus musculus [22],50%
same,GI50,OVCAR-3 [23],64.6 µM
same,GI50,SK-MEL-2 [24],33.5 µM
same,GI50,HCT-116 [25],39.7 µM
same,inhibition of growth at 100 µM,SF-268 [26],70%
same,inhibition of growth at 100 µM,UO-31 [27],80%
same,inhibition of growth at 100 µM,SK-MEL-2 [28],84%
same,GI50,UO-31 [29],27.2 µM
same,inhibition of growth at 100 µM,SK-MEL-5 [30],114%
same,Activity,Mus musculus [31],60%
same,Activity,Mus musculus [32],Toxic
same,GI50,DMS-273 [33],47.5 µM
same,Activity,Mus musculus [34],Toxic
same,GI50,M19-MEL [35],38.2 µM
same,GI50,MOLT-4 [36],34.3 µM
same,GI50,UACC-257 [37],37.9 µM
same,GI50,NCI-H226 [38],48.4 µM
same,inhibition of growth at 100 µM,RPMI-8226 [39],97%
same,GI50,NCI-H522 [40],22.6 µM
same,Activity,Mus musculus [41],Toxic
same,GI50,OVCAR-4 [42],56.2 µM
same,GI50,HCC 2998 [43],38.2 µM
same,inhibition of growth at 100 µM,NCI-H226 [44],72%
same,inhibition of growth at 100 µM,HCT-116 [45],77%
same,inhibition of growth at 100 µM,CCRF-CEM [46],84%
same,Activity,Mus musculus [47],Dose-dependent effect
same,Activity,Mus musculus [48],40%
same,Activity,Mus musculus [49],Toxic
same,inhibition of growth at 100 µM,NCI-H522 [50],126%
same,Activity,Mus musculus [51],90%
same,inhibition of growth at 100 µM,UACC-257 [52],72%
same,Activity,Mus musculus [53],20%
same,GI50,SNB-19 [54],36 µM
same,GI50,CCRF-CEM [55],34.9 µM
same,inhibition of growth at 100 µM,M19-MEL [56],81%
same,Activity,Mus musculus [57],Dose-dependent effect
same,GI50,NCI-H23 [58],47.5 µM
same,inhibition of growth at 100 µM,DMS-273 [59],67%
same,GI50,RPMI-8226 [60],34.6 µM
same,Activity,Mus musculus [61],60%
same,GI50,SNB-75 [62],55.2 µM
same,Activity,Mus musculus [63],Toxic
same,Activity,Mus musculus [64],20%

# — ChEMBL document CHEMBL1150808, “General behavior, toxicity, and cytotoxic activity of elenoside, a lignan from Justicia hyssopifolia” (J Nat Prod, 2001)
